Drawing on patent US8940768B2, “Antifungal triazole derivatives” (Daewoong Pharmaceutical Co., Ltd., priority 2010, dated 2015), this text covers MIC80 for 21 compounds.

In brackets after ≈: the same amount, converted by molar mass. Like-named read-outs stand apart in the source and are kept apart here.

What all share (assay type): cell-based
The subject of experiment [1] is Aspergillus fumigatus. The experiment in a line: in vitro antifungal activity (MIC80), Aspergillus fumigatus. To be noted: 80% growth inhibition vs negative control, RPMI 1640, read 48 hrs after application. How it is done: (§1) The compounds of the present invention were evaluated for inhibitory activity against yeast molds including Candida albicans, Candida glabrata, Candida krusei, Candida tropicalis, Candida parapsilosis, and Cryptococcus neoformans, and filamentous fungi including Aspergillus fumigatus, Trichophyton mentagrophytes (obtained from KCTC (Korean Collection for Type Cultures), and Trichophyton rubrum (obtained from KCCM (Korean Culture Center of Microorganisms). All the strains, but Trichophyton mentagrophytes and Trichophyton rubrum, were purchased from the ATCC (American Type Culture Collection).
(§2) Of the strains used in this test, Candida albicans, Candida glabrata, Candida krusei, Candida tropicalis, Candida parapsilosis, Trichophyton mentagrophytes and Trichophyton rubrum were inoculated into sabouraud dextrose agars (Difco, BD-0109), Cryptococcus neoformans into a yeast mold agar (YM agar, Difco, 271210), and Aspergillus fumigatus into a malt extract agar (Difco, 211220), before incubation at 35° C. for two to ten days.
(§3) From the agars on which the yeast molds were grown, single colonies were picked up, and each was sufficiently suspended in 5 mL of already prepared, 0.85% sterile saline. After correction of the absorbance to 0.108 at 530 nm, each of the suspensions was diluted to a ratio of 1:50 in an RPMI (Roswell park memorial institute) 1640 medium and then to a ratio of 1:20 to prepare an inoculum having a cell density of from 1.0×10^3 to 5.0×10^3CFU/mL. The cell density was adjusted into […]˜5.0×10^4 CFU/mL for Aspergillus fumigates and 0.4×10^4˜5.0×10^4 CFU/mL for both Trichophyton mentagrophytes and Trichophyton rubrum.
(§4) The antifungal agent samples were prepared by diluting the active compounds in an RPMI 1640 medium to a serial density of from 0.0156 to 32 μg/mL. In this context, dimethylsulfoxide (DMSO) was used as an excipient at a final concentration of 1% (v/v). The serial dilutions were aliquoted at a volume of 0.1 mL and applied to 0.1 mL of the aliquots of each inoculum, followed by incubation.
(§5) With the naked eyes, an observation was made of all of the yeast molds, but Cryptococcus neoformans 24 hrs after the application, Cryptococcus neoformans and Aspergillus fumigatus 48 hrs after the application, and Trichophyton mentagrophytes and Trichophyton rubrum five days after the application to examine whether the fungi grew or not. In addition, Alamarblue™ as used to determine the concentrations of the compounds of the present invention at which the growth of the microorganisms was 80% inhibited compared to that of the negative control. All experiments were performed in duplicate for each of the test concentration groups.

The subject of experiment [2] is Candida albicans. The experiment in a line: in vitro antifungal activity (MIC80), Candida albicans. The following applies: 80% growth inhibition vs negative control, RPMI 1640, read 24 hrs after application. The protocol:
as §1, §2, §3, §4, §5

The subject of experiment [3] is Candida glabrata. The experiment is described as follows: in vitro antifungal activity (MIC80), Candida glabrata. The following applies: Nakaseomyces glabratus, 24 h, read-out: Antifungal Activity (MIC80) C. grabrata. How it is done: as §1, §2, §3, §4, §5
Experiment [4] has as its system Candida krusei. The experiment in a line: in vitro antifungal activity (MIC80), Candida krusei. The following applies: Pichia kudriavzevii; 80% growth inhibition vs negative control; RPMI 1640; read 24 hrs after application; read-out: Antifungal Activity (MIC80) C. krusei. How it is done: as §1, §2, §3, §4, §5
The subject of experiment [5] is Trichophyton mentagrophytes. The experiment in a line: in vitro antifungal activity (MIC80), Trichophyton mentagrophytes. The following applies: 120 h, 80% growth inhibition vs negative control, RPMI 1640, read five days after application. The protocol: as §1, §2, §3, §4, §5
Experiment [6] has as its system Trichophyton rubrum. The experiment is described as follows: in vitro antifungal activity (MIC80), Trichophyton rubrum. To be noted: 120 h, 80% growth inhibition vs negative control, RPMI 1640, read five days after application. The protocol:
as §1, §2, §3, §4, §5

The mark [7] stands for this setting: Table 1, read-out: Antifungal Activity (MIC80) C. albicans.
The mark [8] stands for this setting: Table 2, read-out: Antifungal Activity (MIC80) Candida albicans.

In the case of `C[C@@H](N1CCC(Oc2ccc(Cl)cc2)CC1)[C@](O)(Cn1cncn1)c1ccc(F)cc1F` [Example 7, (2R,3R)-3-(4-(4-chlorophenoxy)piperidin-1-yl)-2-(2,4-difluorophenyl)-1-(1H-1,2,4-triazol-1-yl)butan-2-ol], the MIC80 (commonly an inhibitory concentration at the 80% level, which refers to growth in some studies and to a panel of isolates in others) in experiment [1] is at most 0.125 µg/mL; in experiment [2] (setting [7]), at most 0.015 µg/mL.

On to `C[C@@H](N1CCC(Oc2ccc(C(F)(F)F)cc2)CC1)[C@](O)(Cn1cncn1)c1ccc(F)cc1F` [Example 13, (2R,3R)-2-(2,4-difluorophenyl)-1-(1H-1,2,4-triazol-1-yl)-3-(4-(4-(trifluoromethyl)phenoxy)piperidin-1-yl)butan-2-ol], for which the MIC80 is 1 µg/mL (≈ 2.01 µM) in experiment [1] and at most 0.015 µg/mL in experiment [2] (setting [7]).

For the compound `C[C@@H](N1CCC(Nc2ncc(F)cn2)CC1)[C@](O)(Cn1cncn1)c1ccc(F)cc1F` [Example 63, (2R,3R)-2-(2,4-difluorophenyl)-3-(4-((5-fluoropyrimidin-2-yl)amino)piperidin-1-yl)-1-(1H-1,2,4-triazol-1-yl)butan-2-ol], the MIC80 in experiment [3] is 1 µg/mL (≈ 2.23 µM); in experiment [1], 0.25 µg/mL (≈ 0.559 µM); in experiment [4], at most 0.062 µg/mL; in experiment [5], at most 0.004 µg/mL; in experiment [6], 0.015 µg/mL (≈ 0.0335 µM); in experiment [2] (setting [7]) it was at most 0.015 µg/mL.

With `C[C@@H](OC1CCN(c2ccc(C#N)cc2)CC1)[C@](O)(Cn1cncn1)c1ccc(F)cc1F` [Example 105, 4-(4-(((2R,3R)-3-(2,4-difluorophenyl)-3-hydroxy-4-(1H-1,2,4-triazol-1-yl)butan-2-yl)oxy)piperidin-1-yl)benzonitrile], in experiment [2] (setting [8]), the MIC80 was at most 0.015 µg/mL.

On to `C[C@@H](OC1CCN(c2ccc(F)cn2)CC1)[C@](O)(Cn1cncn1)c1ccc(F)cc1F` [Example 114, (2R,3R)-2-(2,4-difluorophenyl)-3-((1-(5-fluoropyridin-2-yl)piperidin-4-yl)oxy)-1-(1H-1,2,4-triazol-1-yl)butan-2-ol], for which, in experiment [2] (setting [8]), the MIC80 was at most 0.015 µg/mL.

On to `C[C@@H](OC1CCN(c2ccc(Cl)cn2)CC1)[C@](O)(Cn1cncn1)c1ccc(F)cc1F` [Example 115, (2R,3R)-3-((1-(5-chloropyridin-2-yl)piperidin-4-yl)oxy)-2-(2,4-difluorophenyl)-1-(1H-1,2,4-triazol-1-yl)butan-2-ol], for which, in experiment [2] (setting [8]), the MIC80 is at most 0.015 µg/mL.

Turning to `Cc1cc(C(F)(F)F)cnc1N1CCC(O[C@H](C)[C@](O)(Cn2cncn2)c2ccc(F)cc2F)CC1` [Example 116, (2R,3R)-2-(2,4-difluorophenyl)-3-((1-(3-methyl-5-(trifluoromethyl)pyridin-2-yl)piperidin-4-yl)oxy)-1-(1H-1,2,4-triazol-1-yl)butan-2-ol], the MIC80 in experiment [2] (setting [8]) was at most 0.015 µg/mL.

On to `C[C@@H](OC1CCN(c2ncc(F)cn2)CC1)[C@](O)(Cn1cncn1)c1ccc(F)cc1F` [Example 118, (2R,3R)-2-(2,4-difluorophenyl)-3-((1-(5-fluoropyrimidin-2-yl)piperidin-4-yl)oxy)-1-(1H-1,2,4-triazol-1-yl)butan-2-ol], for which the MIC80 in experiment [2] (setting [8]) was at most 0.015 µg/mL.

In the case of `C[C@@H](OC1CCN(c2ncc(Br)cn2)CC1)[C@](O)(Cn1cncn1)c1ccc(F)cc1F` [Example 120, (2R,3R)-3-((1-(5-bromopyrimidin-2-yl)piperidin-4-yl)oxy)-2-(2,4-difluorophenyl)-1-(1H-1,2,4-triazol-1-yl)butan-2-ol], the MIC80 in experiment [2] (setting [8]) was at most 0.015 µg/mL.

Turning to `C[C@@H](NC1CCN(c2ccccc2)CC1)[C@](O)(Cn1cncn1)c1ccc(F)cc1F` [Example 123, (2R,3R)-2-(2,4-difluorophenyl)-3-((1-phenylpiperidin-4-yl)amino)-1-(1H-1,2,4-triazol-1-yl)butan-2-ol], in experiment [2] (setting [8]), the MIC80 is at most 0.015 µg/mL.

With `C[C@@H](NC1CCN(c2ccc(C(F)(F)F)cc2)CC1)[C@](O)(Cn1cncn1)c1ccc(F)cc1F` [Example 134, (2R,3R)-2-(2,4-difluorophenyl)-1-(1H-1,2,4-triazol-1-yl)-3-((1-(4-(trifluoromethyl)phenyl)piperidin-4-yl)amino)butan-2-ol], the MIC80 in experiment [2] (setting [8]) was at most 0.015 µg/mL.

Consider `C[C@@H](NC1CCN(c2ccc(C#N)cc2)CC1)[C@](O)(Cn1cncn1)c1ccc(F)cc1F` [Example 137, 4-(4-(((2R,3R)-3-(2,4-difluorophenyl)-3-hydroxy-4-(1H-1,2,4-triazol-1-yl)butan-2-yl)amino)piperidin-1-yl)benzonitrile], for which the MIC80 in experiment [2] (setting [8]) was at most 0.015 µg/mL.

Take `C[C@@H](NC1CCN(c2ccc(F)cn2)CC1)[C@](O)(Cn1cncn1)c1ccc(F)cc1F` [Example 146, (2R,3R)-2-(2,4-difluorophenyl)-3-((1-(5-fluoropyridin-2-yl)piperidin-4-yl)amino)-1-(1H-1,2,4-triazol-1-yl)butan-2-ol]: the MIC80 in experiment [2] (setting [8]) was at most 0.015 µg/mL.

Take `C[C@@H](NC1CCN(c2ccc(Cl)cn2)CC1)[C@](O)(Cn1cncn1)c1ccc(F)cc1F` [Example 147, (2R,3R)-3-((1-(5-chloropyridin-2-yl)piperidin-4-yl)amino)-2-(2,4-difluorophenyl)-1-(1H-1,2,4-triazol-1-yl)butan-2-ol]: the MIC80 in experiment [2] (setting [8]) was at most 0.015 µg/mL.

On to `Cc1cc(C(F)(F)F)cnc1N1CCC(N[C@H](C)[C@](O)(Cn2cncn2)c2ccc(F)cc2F)CC1` [Example 148, (2R,3R)-2-(2,4-difluorophenyl)-3-((1-(3-methyl-5-(trifluoromethyl)pyridin-2-yl)piperidin-4-yl)amino)-1-(1H-1,2,4-triazol-1-yl)butan-2-ol], for which the MIC80 in experiment [3] is 0.25 µg/mL (≈ 0.49 µM); in experiment [1], 1 µg/mL (≈ 1.96 µM); in experiment [4] it was at most 0.062 µg/mL; in experiment [2] (setting [7]), at most 0.015 µg/mL.

`C[C@@H](NC1CCN(c2ncccn2)CC1)[C@](O)(Cn1cncn1)c1ccc(F)cc1F` [Example 149, (2R,3R)-2-(2,4-difluorophenyl)-3-((1-(pyrimidin-2-yl)piperidin-4-yl)amino)-1-(1H-1,2,4-triazol-1-yl)butan-2-ol]: the MIC80 in experiment [2] (setting [8]) is at most 0.015 µg/mL.

For `C[C@@H](N(C)C1CCN(c2ccccc2)CC1)[C@](O)(Cn1cncn1)c1ccc(F)cc1F` [Example 155, (2R,3R)-2-(2,4-difluorophenyl)-3-(methyl(1-phenylpiperidin-4-yl)amino)-1-(1H-1,2,4-triazol-1-yl)butan-2-ol], the MIC80 in experiment [2] (setting [8]) is at most 0.015 µg/mL.

On to `C[C@@H](N(C)C1CCN(c2ccc(F)cc2)CC1)[C@](O)(Cn1cncn1)c1ccc(F)cc1F` [Example 158, (2R,3R)-2-(2,4-difluorophenyl)-3-((1-(4-fluorophenyl)piperidin-4-yl)(methyl)amino)-1-(1H-1,2,4-triazol-1-yl)butan-2-ol], for which, in experiment [2] (setting [8]), the MIC80 is at most 0.015 µg/mL.

Take `C[C@@H](N(C)C1CCN(c2ccc(Cl)cc2)CC1)[C@](O)(Cn1cncn1)c1ccc(F)cc1F` [Example 161, (2R,3R)-3-((1-(4-chlorophenyl)piperidin-4-yl)(methyl)amino)-2-(2,4-difluorophenyl)-1-(1H-1,2,4-triazol-1-yl)butan-2-ol]: the MIC80 in experiment [2] (setting [8]) is at most 0.015 µg/mL.

Regarding `C[C@@H](N(C)C1CCN(c2ccc(C(F)(F)F)cc2)CC1)[C@](O)(Cn1cncn1)c1ccc(F)cc1F` [Example 167, (2R,3R)-2-(2,4-difluorophenyl)-3-(methyl(1-(4-(trifluoromethyl)phenyl)piperidin-4-yl)amino)-1-(1H-1,2,4-triazol-1-yl)butan-2-ol], in experiment [2] (setting [8]), the MIC80 is at most 0.015 µg/mL.

For `C[C@@H](N(C)C1CCN(c2ccc(C#N)cc2)CC1)[C@](O)(Cn1cncn1)c1ccc(F)cc1F` [Example 170, 4-(4-(((2R,3R)-3-(2,4-difluorophenyl)-3-hydroxy-4-(1H-1,2,4-triazol-1-yl)butan-2-yl)(methyl)amino)piperidin-1-yl)benzonitrile], the MIC80 in experiment [2] (setting [8]) was at most 0.015 µg/mL.
